Source: PubChem BioAssay AID330 (DTP/NCI, 2004)
Several values for one entry are separate records, joined by “and”; a condition that tells them apart may be missing. Equal entries are not always repeated. Toxic doses and inconclusive results are not listed. How the source made its calls: active means survival T/C of 150% or more; inactive means T/C below 125% in these data.

Tested on: P388 leukemia ip, CD2F1 mice, survival T/C
Assay: NCI In Vivo Anticancer Drug Screen. Data for tumor model P388 Leukemia (intraperitoneal) in CD2F1 (CDF1) mice
Details: endpoint: median survival time, higher = longer survival
Procedure, shortened: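 Mice carrying the transplanted tumor received test compound or vehicle. Survival was recorded in each group, and the value is the treated-group measurement divided by that of the vehicle-treated control group.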

[1] = dose: 50.0 mg/kg/injection, schedule: Q01DX009 (ip), vehicle: saline with Tween-80
[2] = dose: 100.0 mg/kg/injection, schedule: Q01DX009 (ip), vehicle: saline with Tween-80
[3] = dose: 200.0 mg/kg/injection, schedule: Q01DX009 (ip), vehicle: saline with Tween-80
[4] = dose: 60.0 mg/kg/injection, schedule: Q01DX005 (ip), vehicle: saline with Tween-80
[5] = dose: 120.0 mg/kg/injection, schedule: Q01DX005 (ip), vehicle: saline with Tween-80
[6] = dose: 240.0 mg/kg/injection, schedule: Q01DX005 (ip), vehicle: saline with Tween-80
[7] = dose: 50.0 mg/kg/injection, schedule: Q01DX009 (ip), vehicle: other
[8] = dose: 50.0 mg/kg/injection, schedule: Q04DX003 (ip), vehicle: saline
[9] = dose: 100.0 mg/kg/injection, schedule: Q01DX009 (ip), vehicle: other
[10] = dose: 100.0 mg/kg/injection, schedule: Q04DX003 (ip), vehicle: saline
[11] = dose: 200.0 mg/kg/injection, schedule: Q01DX009 (ip), vehicle: other
[12] = dose: 200.0 mg/kg/injection, schedule: Q04DX003 (ip), vehicle: saline
[13] = dose: 50.0 mg/kg/injection, schedule: Q01DX005 (ip), vehicle: saline with Tween-80
[14] = dose: 50.0 mg/kg/injection, schedule: Q01DX009 (ip), vehicle: Klucel (hydroxypropylcellulose) (HPC)
[15] = dose: 6.25 mg/kg/injection, schedule: Q01DX009 (ip), vehicle: saline
[16] = dose: 12.5 mg/kg/injection, schedule: Q01DX009 (ip), vehicle: saline
[17] = dose: 25.0 mg/kg/injection, schedule: Q01DX009 (ip), vehicle: saline
[18] = dose: 100.0 mg/kg/injection, schedule: Q01DX009 (ip), vehicle: saline
[19] = dose: 50.0 mg/kg/injection, schedule: Q01DX009 (ip), vehicle: saline
[20] = dose: 6.25 mg/kg/injection, schedule: Q01DX009 (ip), vehicle: Klucel (hydroxypropylcellulose) (HPC)
[21] = dose: 12.5 mg/kg/injection, schedule: Q01DX009 (ip), vehicle: Klucel (hydroxypropylcellulose) (HPC)
[22] = dose: 25.0 mg/kg/injection, schedule: Q01DX009 (ip), vehicle: Klucel (hydroxypropylcellulose) (HPC)

Measured: T/C

O=C1NC(=O)C2(F)CC3(CCCCC3)C2N1 (stereo not given)
inactive: dose: 1.5 mg/kg/injection, schedule: Q01DX005 (ip), vehicle: Klucel (hydroxypropylcellulose) (HPC) 100 % of control | dose: 3.0 mg/kg/injection, schedule: Q01DX005 (ip), vehicle: Klucel (hydroxypropylcellulose) (HPC) 102 % of control | dose: 6.0 mg/kg/injection, schedule: Q01DX005 (ip), vehicle: Klucel (hydroxypropylcellulose) (HPC) 94 % of control | dose: 12.5 mg/kg/injection, schedule: Q01DX001 (ip), vehicle: Klucel (hydroxypropylcellulose) (HPC) 103 % of control

O=C(OCc1ccccc1)N1CC=CC1Cc1ccccc1 (stereo not given)
inactive: dose: 100.0 mg/kg/injection, schedule: Q01DX001 (ip), vehicle: distilled water + alcohol 97 % of control | dose: 200.0 mg/kg/injection, schedule: Q01DX001 (ip), vehicle: distilled water + alcohol 99 % of control | dose: 400.0 mg/kg/injection, schedule: Q01DX001 (ip), vehicle: distilled water + alcohol 100 % of control

CSc1nsc(SC)c1C(N)=O
inactive: dose: 60.0 mg/kg/injection, schedule: Q01DX005 (ip), vehicle: Klucel (hydroxypropylcellulose) (HPC) 99 % of control | dose: 120.0 mg/kg/injection, schedule: Q01DX005 (ip), vehicle: Klucel (hydroxypropylcellulose) (HPC) 98 % of control | dose: 240.0 mg/kg/injection, schedule: Q01DX005 (ip), vehicle: Klucel (hydroxypropylcellulose) (HPC) 105 % of control

O=S(=O)(Nc1ccccc1)c1ccc(C2CC3(Cl)C(Cl)=C(Cl)C2(Cl)C3(Cl)Cl)cc1 (stereo not given)
inactive: dose: 100.0 mg/kg/injection, schedule: Q01DX009 (ip), vehicle: saline sonified 90 % of control | dose: 200.0 mg/kg/injection, schedule: Q01DX009 (ip), vehicle: saline sonified 90 % of control | dose: 400.0 mg/kg/injection, schedule: Q01DX009 (ip), vehicle: saline sonified 90 % of control

Cc1ccc([B-]23OCC[N+]2(CNC(=O)C2=C(O)C4(O)C(=O)C5=C(O)c6c(O)cccc6C(C)(O)C5CC4C(N(C)C)C2=O)CCO3)cc1 (stereo not given)
inactive: dose: 50.0 mg/kg/injection, schedule: Q01DX005 (ip), vehicle: Klucel (hydroxypropylcellulose) (HPC) 108 % of control | dose: 100.0 mg/kg/injection, schedule: Q01DX005 (ip), vehicle: Klucel (hydroxypropylcellulose) (HPC) 108 % of control | dose: 200.0 mg/kg/injection, schedule: Q01DX005 (ip), vehicle: Klucel (hydroxypropylcellulose) (HPC) 113 % of control

O=C(O)CSc1nnc2c3ccccc3c3ccccc3c2n1
inactive: dose: 12.5 mg/kg/injection, schedule: Q01DX009 (ip), vehicle: saline with Tween-80 97 % of control | dose: 25.0 mg/kg/injection, schedule: Q01DX009 (ip), vehicle: saline with Tween-80 100 % of control | [1] 100 % of control and 93 % of control | [2] 87 % of control | [3] 101 % of control

CCc1cccc(CC)c1NC1=C(Cl)C(=O)c2ccccc2C1=O
inactive: [4] 100 % of control | [5] 94 % of control | [6] 104 % of control

O=c1oc2c(O)c(O)cc3c(=O)oc4c(O)c(O)cc1c4c23
inactive: [7] 121 % of control | [8] 100 % of control | [9] 123 % of control | [10] 103 % of control | [11] 117 % of control and 123 % of control | [12] 112 % of control | dose: 400.0 mg/kg/injection, schedule: Q01DX009 (ip), vehicle: other 102 % of control and 108 % of control

N#CC(C(=O)CCC(=O)NCCc1ccccc1)c1nc2ccccc2s1 (stereo not given)
inactive: [4] 103 % of control | [5] 100 % of control | [6] 100 % of control

CC12NCCC(CC(=O)N1)C2(C)C (stereo not given)
inactive: dose: 60.0 mg/kg/injection, schedule: Q01DX005 (ip), vehicle: saline 103 % of control | dose: 120.0 mg/kg/injection, schedule: Q01DX005 (ip), vehicle: saline 110 % of control | dose: 240.0 mg/kg/injection, schedule: Q01DX005 (ip), vehicle: saline 106 % of control

Nc1ncnc2c1c(-c1ccc(Cl)cc1)cn2-c1ccc(I)cc1
inactive: [4] 100 % of control | [5] 102 % of control | [6] 88 % of control

Cc1cc(NC(=O)c2ccc(N=Nc3c(O)c(S(=O)(=O)O)cc4cc(S(=O)(=O)O)ccc34)cc2)ccc1N=Nc1ccc2cc(S(=O)(=O)O)cc(S(=O)(=O)O)c2c1
inactive: [13] 95 % of control | dose: 100.0 mg/kg/injection, schedule: Q01DX005 (ip), vehicle: saline with Tween-80 98 % of control | dose: 200.0 mg/kg/injection, schedule: Q01DX005 (ip), vehicle: saline with Tween-80 104 % of control

CC1=C(C)C(=O)C(CCl)=[C-]C1=O.[Co].[c-]1[c-][c-][cH-][c-]1
inactive: [13] 123 % of control

CC(C)c1nccn1Cc1ccc(Cl)cc1Cl
inactive: [4] 88 % of control | [5] 99 % of control

N#C/C(=C\Nc1ccccn1)C(=O)C1CC1
inactive: [4] 100 % of control | [5] 92 % of control | [6] 91 % of control

c1ccc(CON(CCc2ccccn2)CCc2ccccn2)cc1
inactive: dose: 50.0 mg/kg/injection, schedule: Q01DX005 (ip), vehicle: saline 97 % of control | dose: 100.0 mg/kg/injection, schedule: Q01DX005 (ip), vehicle: saline 98 % of control | dose: 200.0 mg/kg/injection, schedule: Q01DX005 (ip), vehicle: saline 98 % of control

CC[Si](C=C1CCCCC1)(CC)CC
inactive: [14] 101 % of control | dose: 100.0 mg/kg/injection, schedule: Q01DX009 (ip), vehicle: Klucel (hydroxypropylcellulose) (HPC) 110 % of control | dose: 200.0 mg/kg/injection, schedule: Q01DX009 (ip), vehicle: Klucel (hydroxypropylcellulose) (HPC) 109 % of control

O=C(/C=C\c1ccc(O)c(O)c1)O[C@@H]1C[C@](O)(C(=O)O)C[C@@H](O)[C@H]1O
inactive: [8] 100 % of control | [10] 100 % of control | [12] 105 % of control

CCOC(=O)NC(N)=O
inactive: [1] 91 % of control | [2] 89 % of control | [3] 89 % of control | dose: 400.0 mg/kg/injection, schedule: Q01DX009 (ip), vehicle: saline with Tween-80 97 % of control

CC1(O)OC(COc2ccc(Cl)cc2)COC1O (stereo not given)
inactive: [4] 112 % of control | [5] 103 % of control

Cc1ccc(CC2CC(=O)NC2=O)cc1 (stereo not given)
inactive: [4] 105 % of control | [5] 93 % of control | [6] 96 % of control

Nc1ccc(Cl)cn1
inactive: [1] 90 % of control | [2] 99 % of control | [3] 99 % of control

CCOC(=O)CN=C(c1ccccc1)c1ccccc1
inactive: [15] 105 % of control | [16] 105 % of control | [17] 105 % of control | [18] 89 % of control

C[N+](C)(C)CC(O)c1ccc(O)c(O)c1 (stereo not given)
inactive: [15] 113 % of control | [16] 100 % of control | [17] 97 % of control | [19] 100 % of control

CC(=O)OC1OC(/C=N\N(C)C)C(OCc2ccccc2)C(OCc2ccccc2)C1OC(C)=O (stereo not given)
inactive: dose: 3.12 mg/kg/injection, schedule: Q01DX005 (ip), vehicle: Klucel (hydroxypropylcellulose) (HPC) 95 % of control | dose: 6.25 mg/kg/injection, schedule: Q01DX005 (ip), vehicle: Klucel (hydroxypropylcellulose) (HPC) 97 % of control | [20] 104 % of control | dose: 12.5 mg/kg/injection, schedule: Q01DX005 (ip), vehicle: Klucel (hydroxypropylcellulose) (HPC) 94 % of control | [21] 92 % of control | [22] 92 % of control | dose: 25.0 mg/kg/injection, schedule: Q01DX009 (ip), vehicle: other 92 % of control | [7] 88 % of control | [9] 94 % of control | [11] 89 % of control

CN(C)CCCn1c(=O)nc2n(-c3ccccc3)c3ccccc3nc-2c1=O
inactive: [20] 100 % of control and 106 % of control | [21] 105 % of control | [22] 109 % of control | [14] 122 % of control

CC([NH-])C(=O)O.O=C(O)CN(CC(=O)O)CC(=O)O.[Co+2]
inactive: [17] 104 % of control | [19] 113 % of control | [18] 104 % of control and 90 % of control

CNC(=O)OCc1c(COC(=O)NC)c(-c2cccs2)n2c1CCC2
inactive: dose: 12.5 mg/kg/injection, schedule: Q01DX005 (ip), vehicle: saline with Tween-80 122 % of control | [13] 104 % of control

N#CC1(C#N)C2C=CC(C3CCC=C32)C1(C#N)C#N (stereo not given)
inactive: [20] 100 % of control | [21] 110 % of control | [22] 106 % of control
